This note sets out measurements from patent US20200163938A1, “PHARMACEUTICAL COMPOSITION COMPRISING IRON CHELATOR EXHIBITING ANTITUMOR ACTIVITY, ANTIBACTERIAL ACTIVITY AND/OR ANTIVIRUS ACTIVITY, AND HAVING REDUCED SIDE EFFECTS” (priority 2017, published 2020).

≈ marks a conversion by molar mass, not a printed value. Where “and” joins values, the source holds several entries; their conditions need not be identical. Equal entries are not always repeated. Where two headings read alike, the source gives them in different places.

Data set [1] has as its system S. aureus (ATCC6538; Staphylococcus aureus). The data set is described as follows: Minimum growth inhibition concentration (MIC). Type of data set: cell-based. The settings on record: for MIC: Staphylococcus aureus, ATCC6538; for MIC / MIC S. aureus: 24 hours. As to the method: (§1) The dilution series of the chelating agent of each test group was prepared according to a standard method, microbes were inoculated, and then 24 hours later, the microbial growth was confirmed, thereby determining the minimum growth inhibition concentration of the chelating agent of each test group. Microbes used herein were S. aureus (ATCC6538; Staphylococcus aureus), P. aeruginosa (ATCC9027; Pseudomonas aeruginosa) and C. albicans (ATCC10231; Candida albicans). Drugs used herein were oxacillin, vancomycin and deferasirox as positive controls.

Data set [2] has as its system P. aeruginosa (ATCC9027; Pseudomonas aeruginosa). The data set is described as follows: Minimum growth inhibition concentration (MIC). Type of data set: cell-based. The conditions noted are these: 24 hours; for MIC: Pseudomonas aeruginosa, ATCC9027. As to the method:
as §1

Data set [3] has as its system C. albicans (ATCC10231; Candida albicans). Description: Minimum growth inhibition concentration (MIC). Type of data set: cell-based. As to the method: as §1
A further data set deals with S. mutans (ATCC25175). Description: Antibacterial activity, turbidity and ATP assay. Type of data set: cell-based, Streptococcus mutans. The settings on record: aerobic culture 37° C., 18 hours; FIGS. 6A, 6B. As to the method: First, the antibacterial activity of a dental caries-causing bacterium, S. mutans (ATCC25175) was examined. With the use of a liquid medium prepared by adding a yeast extract and the chelating agent of each test group to TSB medium, aerobic culture was performed at 37° C. for 18 hours, and then turbidity was found from optical density (OD570 or 595 nm). Cell activity was measured using an ATP assay kit (Kikkoman Corporation). Results were as depicted in FIGS. 6A and 6B.

The subject of data set [4] is A. actinomycetemcomitans AaY4 (ATCC). The data set is described as follows: Antibacterial activity, turbidity and ATP assay. The settings on record: anaerobic culture 37° C., 18 hours; FIGS. 7A, 7B. In kind it is cell-based, Aggregatibacter actinomycetemcomitans. As to the method:
A bacterial strain of one of periodontopathic bacteria, A. actinomycetemcomitans, used herein was AaY4 (ATCC). With the use of a liquid medium prepared by adding a yeast extract, sodium bicarbonate and the chelating agent of each test group to TSB medium, anaerobic culture (Anaeropack-anaerobic) was performed at 37° C. for 18 hours. Turbidity was measured using absorbance (OD570 or 595 nm), and cell activity was measured using an ATP assay kit. Results were as depicted in FIGS. 7A and 7B.

Data set [5] relates to Human lung cancer cell line (A549) subcutaneous tumors. The data set is described as follows: In vivo antitumor effects, A549 subcutaneous tumors in nude mice. As to the method: Antitumor effects were confirmed using animal models. Specifically, nude mice (BALB/c nu/nu, 6 weeks old: Clea Japan Inc.) were provided. Human lung cancer cell line (A549) was adjusted at 3×10^6/mouse, and then mixed with Matrigel (BD Biosciences) at 1:1. The thus obtained mixture was administered to mice, thereby forming subcutaneous tumors. At 1 week after the formation of subcutaneous tumors, mice were divided into a negative control group (saline: 4 mice), a test group 9 administration group (test group 9: 3 mice), and a positive control group (deferasirox: 3 mice), and then subjected to oral administration. The dosage of deferasirox was 20 mg/kg/day (5 times/week administration) corresponding to that specified for humans in the package insert. Test group 9 was administered in the same dosage as that of deferasirox. Results were as depicted in FIGS. 4A and 4B.

The format of data set [6] is in vivo. More on the design: NEFA: unit not given here. The settings on record: for Body weight: rats. As to the method: To a negative control group (saline administration; n=6), the same amount of saline was administered. On day 14 after administration, determining life or death, measurement of body weight, physical items (respiration, body temperature, behavior, etc.) were observed. Moreover, blood samples were taken from each group, and the right kidneys and the livers were removed. Results were as depicted in FIG. 5A to 5C and Tables 4 to 9.

[7] abbreviates: rat blood, oral 200 mg/kg, day 14.
Where [8] appears, read: rat blood, oral 1000 mg/kg, day 14.
The mark [9] stands for this setting: rat blood, oral 1000 mg/kg, day 14, 1000 mg/kg.

As to `O=C(O)c1ccc(-n2nc(-c3ccccc3O)nc2-c2ccccc2O)cc1` [Deferasirox, deferasirox, reference compound], the MIC in data set [1] is 250 µg/mL (≈ 670 µM); in data set [2] it was greater than 250 µg/mL; in data set [3] (Candida albicans, ATCC10231, 24 hours), greater than 250 µg/mL.
As for `Cc1onc(-c2ccccc2)c1C(=O)N[C@@H]1C(=O)N2[C@@H]1SC(C)(C)[C@@H]2C(=O)O` [Oxacillin, oxacillin, reference compound], the MIC in data set [1] is 0.25 µg/mL (≈ 0.623 µM); in data set [2], 1020 µg/mL (≈ 2550 µM).
In the case of `Cl.OCC1OC(O)C(NCc2ccc(O)c(O)c2)C(O)C1O` (centres unmarked) [Test group 5], in the data set on S. mutans (ATCC25175), the “antimicrobial effects on S. mutans (turbidity, ATP activity)” value is “strong antimicrobial effects”. The “antimicrobial effects on A. actinomycetemcomitans (turbidity, ATP activity)” value in data set [4] is “strong antimicrobial effects”. The “MIC S. aureus” value in data set [1] is 800 µg/mL. Further, the “MIC P. aeruginosa” value in data set [2] is greater than 800 µg/mL. For the same compound, in data set [3] (24 hours), the “MIC C. albicans” value was found to be 800 µg/mL. In addition, the “antimicrobial effects on C. albicans (in words)” value in data set [3] (from Table 10) is listed as “exhibited antimicrobial effects”.
Regarding `Cl.O=C(O)c1cc(CNC2C(O)OC(CO)C(O)C2O)ccc1O` (centres unmarked) [Test group 7], the “MIC S. aureus” value in data set [1] was greater than 800 µg/mL. Also, the “MIC P. aeruginosa” value in data set [2] is greater than 800 µg/mL. Moreover, the “MIC C. albicans” value in data set [3] (24 hours) was greater than 800 µg/mL.
Take `Cl.O=C(O)[C@H](Cc1c[nH]cn1)NCc1ccc(O)c(O)c1` [Test group 8]: the “MIC S. aureus” value in data set [1] was 800 µg/mL. The “antimicrobial effects on S. aureus (in words)” value in data set [1] (from Table 10) was “antimicrobial effects”. The “MIC P. aeruginosa” value in data set [2] was greater than 800 µg/mL. Besides, in data set [3] (24 hours), the “MIC C. albicans” value was greater than 800 µg/mL.
`Cl.O=C(O)c1cc(CN[C@@H](Cc2c[nH]cn2)C(=O)O)ccc1O` [Test group 9]: the “in vivo antitumor effects” value in data set [5] (A549 subcutaneous tumors, nude mice, oral 20 mg/kg/day (5 times/week), FIG. 4A) was “antitumor effects were exhibited to an extent almost equivalent to that in the positive control group”. Moreover, the body weight change result in data set [5] (mouse, in vivo, po, 20 mg/kg/day) is given as “no significant change was observed in body weight”. Besides, in data set [5] (nude mice, oral 20 mg/kg/day (5 times/week)), the “death during the experiment” value is on record as “no mice died during the experiment”. In data set [6] (setting [7]), the ALP is recorded as 695 IU/L, the ALT is listed as 24 IU/L, the AST is listed as 54 IU/L and the BUN is on record as 22.8 mg/dL. In data set [6] (setting [7]), the CRE worked out at 0.37 mg/dL, the Ca came out at 11.1 mg/dL, the GLU worked out at 214 mg/dL and the K turned out to be 4.7 mEQ/L. In data set [6] (setting [7]), this compound displayed an LD of 49 IU/L, an NEFA of 59, a Na of 146 mEQ/L and a T-Bil of 0.05 mg/dL. The compound also returned a TP in data set [6] (setting [7]) of 5.5 g/dL. For the same compound, in data set [6] (setting [8]), the CRE stood at 0.36 mg/dL and the T-Bil stood at 0.06 mg/dL. Besides, in data set [6] (setting [9]), the ALP was 563 IU/L and 502 IU/L; the ALT is 24 IU/L and 25 IU/L; the AST is 59 IU/L and 58 IU/L; the BUN is 22.5 mg/dL and 24.4 mg/dL. Besides, in data set [6] (setting [9]), the Ca was 10.0 mg/dL and 11.2 mg/dL; the GLU is 195 mg/dL and 301 mg/dL; the K is 3.6 mEQ/L and 4.8 mEQ/L; the LD was 78 IU/L and 70 IU/L. In data set [6] (setting [9]), the Na is 143 mEQ/L and 144 mEQ/L; the TP was 5.4 g/dL and 5.9 g/dL. For the same compound, in data set [6] (oral 200 mg/kg), the Body weight turned out to be 190.97 g. Further, the Body weight in data set [6] (oral 1000 mg/kg, 1000 mg/kg) was 177.11 g and 183.15 g. Moreover, the “MIC S. aureus” value in data set [1] was greater than 500 µg/mL. In addition, the “MIC P. aeruginosa” value in data set [2] was greater than 500 µg/mL. The “MIC C. albicans” value in data set [3] (24 hours) was greater than 500 µg/mL.
As for `CN[C@H](CC(C)C)C(=O)N[C@H]1C(=O)N[C@@H](CC(N)=O)C(=O)N[C@H]2C(=O)N[C@H]3C(=O)N[C@H](C(=O)N[C@H](C(=O)O)c4cc(O)cc(O)c4-c4cc3ccc4O)[C@H](O)c3ccc(c(Cl)c3)Oc3cc2cc(c3O[C@@H]2O[C@H](CO)[C@@H](O)[C@H](O)[C@H]2O[C@H]2C[C@](C)(N)[C@H](O)[C@H](C)O2)Oc2ccc(cc2Cl)[C@H]1O` [Vancomycin, vancomycin, reference compound], the MIC in data set [1] was 1.6 µg/mL (≈ 1.1 µM); in data set [2], greater than 50 µg/mL.

What is called MIC is the lowest concentration that inhibits growth of the organism.
